Biological target: HDM2 protein (Homo sapiens, UniProt Q00987)
Assay: fluorescence polarization screening assay (FP IC50)
Type: binding
Settings: class symbols
Description: The compounds were evaluated to determine activity at the HDM2 protein by known methods such as the fluorescence polarization screening assay that measures the inhibitory concentration that achieves 50% of maximal activity (FP IC50) and the dissociation constant for inhibitor binding (FP Ki). [Zhang et al., J. Analytical Biochemistry 331: 138-146 (2004)].

HDM2 protein, sequence (Q00987 whole entry): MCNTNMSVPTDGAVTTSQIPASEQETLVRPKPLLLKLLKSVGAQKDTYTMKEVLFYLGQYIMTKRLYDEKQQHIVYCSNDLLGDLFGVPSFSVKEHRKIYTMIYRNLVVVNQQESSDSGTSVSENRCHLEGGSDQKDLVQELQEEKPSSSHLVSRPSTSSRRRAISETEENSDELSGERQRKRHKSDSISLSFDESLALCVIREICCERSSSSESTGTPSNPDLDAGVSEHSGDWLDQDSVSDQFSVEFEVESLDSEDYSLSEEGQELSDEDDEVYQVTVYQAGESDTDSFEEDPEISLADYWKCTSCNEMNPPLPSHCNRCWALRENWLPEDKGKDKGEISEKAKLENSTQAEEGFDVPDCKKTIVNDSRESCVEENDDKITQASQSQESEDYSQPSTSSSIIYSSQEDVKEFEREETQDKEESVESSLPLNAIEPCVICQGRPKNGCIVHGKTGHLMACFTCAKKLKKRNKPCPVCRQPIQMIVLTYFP

Row | SMILES | IC50
1 | CCC[C@H]1N(C(=O)c2ncccc2C(F)(F)F)CCC[C@@]1(Oc1csc(C(F)(F)F)c1)C(=O)N1CCc2cc(Cl)ccc2C1CC(C)(C)C(=O)NS(C)(=O)=O (single isomer, unassigned) [Compound A68] | 1 to 100 nM
2 | CCC[C@H]1N(C(=O)c2ncccc2C(F)(F)F)CCC[C@@]1(Oc1csc(C(F)(F)F)c1)C(=O)N1CCc2sc(Cl)cc2C1CCC(=O)NS(C)(=O)=O (stereo partly drawn) [Compound A36, 3-(2-chloro-5-{[(2R,3S)-2-propyl-1-{[3-(trifluoromethyl)pyridin-2-yl]carbonyl}-3-{[5-(trifluoromethyl)thiophen-3-yl]oxy}piperidin-3-yl]carbonyl}-4,5,6,7-tetrahydrothieno[3,2-c]pyridin-4-yl)-N-(methylsulfonyl) propanamide] | 1 to 100 nM
3 | CCC[C@H]1N(C(=O)c2ncccc2C(F)(F)F)CCC[C@@]1(Oc1csc(C(F)(F)F)c1)C(=O)N1Cc2ccc(Cl)cc2C[C@@H]1CN(C)C(=O)CC [Compound A152, N-{[(3R)-6-chloro-2-{[(2R,3S)-2-propyl-1-{[3-(trifluoromethyl)pyridin-2-yl]carbonyl}-3-{[5-(trifluoromethyl)thiophen-3-yl]oxy}piperidin-3-yl]carbonyl}-1,2,3,4-tetrahydroisoquinolin-3-yl]methyl}-N-methylpropanamide] | 1 to 100 nM
4 | CCC[C@H]1N(C(=O)c2ncccc2C(F)(F)F)CCC[C@@]1(Oc1csc(C(F)(F)F)c1)C(=O)N1Cc2ccc(Cl)cc2C[C@@H]1C[C@H](COC)C(=O)O [Compound A161, (2R)-3-[(3S)-6-chloro-2-{[(2R,3S)-2-propyl-1-{[3-(trifluoromethyl)pyridin-2-yl]carbonyl}-3-{[5-(trifluoromethyl)thiophen-3-yl]oxy}piperidin-3-yl]carbonyl}-1,2,3,4-tetrahydroisoquinolin-3-yl]-2-(methoxymethyl) propanoic acid] | 1 to 100 nM
5 | CCC[C@H]1N(C(=O)c2ncccc2C(F)(F)F)CCC[C@@]1(Oc1csc(C(F)(F)F)c1)C(=O)N1Cc2cc(F)ccc2C[C@@H]1CCC(=O)O [Compound A132, 3-[(3S)-7-fluoro-2-{[(2R,3S)-2-propyl-1-{[3-(trifluoromethyl)pyridin-2-yl]carbonyl}-3-{[5-(trifluoromethyl)thiophen-3-yl]oxy}piperidin-3-yl]carbonyl}-1,2,3,4-tetrahydroisoquinolin-3-yl]propanoic acid] | 1 to 100 nM
6 | CCC[C@H]1N(C(=O)c2ncccc2C(F)(F)F)CCC[C@@]1(Oc1csc(C(F)(F)F)c1)C(=O)N1CCc2sc(C(=O)O)cc2C1 [Compound A10, 5-{[(2R,3S)-2-propyl-1-{[3-(trifluoromethyl)pyridin-2-yl]carbonyl}-3-{[5-(trifluoromethyl)thiophen-3-yl]oxy}piperidin-3-yl]carbonyl}-4,5,6,7-tetrahydrothieno[3,2-c]pyridine-2-carboxylic acid] | 101 to 20000 nM
7 | CCC[C@H]1N(C(=O)c2ncccc2C(F)(F)F)CCC[C@@]1(Oc1csc(C(F)(F)F)c1)C(=O)N1Cc2ccc(Cl)cc2C[C@@H]1C[C@H](CC)C(=O)O [Compound A165, (2S)-2-{[(3S)-6-chloro-2-{[(2R,3S)-2-propyl-1-{[3-(trifluoromethyl)pyridin-2-yl]carbonyl}-3-{[5-(trifluoromethyl)thiophen-3-yl]oxy}piperidin-3-yl]carbonyl}-1,2,3,4-tetrahydroisoquinolin-3-yl]methyl}butanoic acid] | 1 to 100 nM
8 | CCC[C@H]1N(C(=O)c2ncccc2C(F)(F)F)CCC[C@@]1(Oc1csc(C(F)(F)F)c1)C(=O)N1CCc2cc(SC)ccc2C1 [Compound A88, 6-(methylsulfanyl)-2-{[(2R,3S)-2-propyl-1-{[3-(trifluoromethyl)pyridin-2-yl]carbonyl}-3-{[5-(trifluoromethyl)thiophen-3-yl]oxy}piperidin-3-yl]carbonyl}-1,2,3,4-tetrahydroisoquinoline] | 101 to 20000 nM
9 | CCC[C@H]1N(C(=O)c2ncccc2C(F)(F)F)CCC[C@@]1(Oc1csc(C(F)(F)F)c1)C(=O)N1CCc2cc(C#N)ccc2C1 [Compound A46] | 101 to 20000 nM
10 | CCC[C@H]1N(C(=O)c2ncccc2C(F)(F)F)CCC[C@@]1(Oc1csc(C(F)(F)F)c1)C(=O)N1Cc2ccc(Cl)cc2C[C@@H]1C(=O)N1CCC(OC)CC1 [Compound A169, (3R)-6-chloro-3-[(4-methoxypiperidin-1-yl)carbonyl]-2-{[(2R,3S)-2-propyl-1-{[3-(trifluoromethyl)pyridin-2-yl]carbonyl}-3-{[5-(trifluoromethyl)thiophen-3-yl]oxy}piperidin-3-yl]carbonyl}-1,2,3,4-tetrahydroisoquinoline] | 1 to 100 nM

The next lines start with the values.

Row | IC50 | SMILES
11 | 1 to 100 nM | CCC[C@H]1N(C(=O)c2ncccc2C(F)(F)F)CCC[C@@]1(Oc1csc(C(F)(F)F)c1)C(=O)N1CCc2cc(Cl)ccc2[C@H]1CCC(=O)O [Compound A45, 3-[(1R)-6-chloro-2-{[(2R,3S)-2-propyl-1-{[3-(trifluoromethyl)pyridin-2-yl]carbonyl}-3-{[5-(trifluoromethyl)thiophen-3-yl]oxy}piperidin-3-yl]carbonyl}-1,2,3,4-tetrahydroisoquinolin-1-yl]propanoic acid]
12 | 1 to 100 nM | CCC[C@H]1N(C(=O)c2ncccc2C(F)(F)F)CCC[C@@]1(Oc1csc(C(F)(F)F)c1)C(=O)N1CCc2cc(Cl)ccc2C1C(=O)O (stereo partly drawn) [Compound A102, 6-chloro-2-{[(2R,3S)-2-propyl-1-{[3-(trifluoromethyl)pyridin-2-yl]carbonyl}-3-{[5-(trifluoromethyl)thiophen-3-yl]oxy}piperidin-3-yl]carbonyl}-1,2,3,4-tetrahydroisoquinoline-1-carboxylic acid]
13 | 1 to 100 nM | CCC[C@H]1N(C(=O)c2ncccc2C(F)(F)F)CCC[C@@]1(Oc1csc(C(F)(F)F)c1)C(=O)N1Cc2ccc(F)cc2C[C@@H]1CC(=O)O [Compound A144, [(3R)-6-fluoro-2-{[(2R,3S)-2-propyl-1-{[3-(trifluoromethyl)pyridin-2-yl]carbonyl}-3-{[5-(trifluoromethyl)thiophen-3-yl]oxy}piperidin-3-yl]carbonyl}-1,2,3,4-tetrahydroisoquinolin-3-yl]acetic acid]
14 | 1 to 100 nM | CCC[C@H]1N(C(=O)c2cnccc2C(F)(F)F)CCC[C@@]1(Oc1csc(C(F)(F)F)c1)C(=O)N1CCc2ccccc2C1CC(=O)O (stereo partly drawn) [Compound A122, (2-{[(2R,3S)-2-propyl-1-{[4-(trifluoromethyl)pyridin-3-yl]carbonyl}-3-{[5-(trifluoromethyl)thiophen-3-yl]oxy}piperidin-3-yl]carbonyl}-1,2,3,4-tetrahydroisoquinolin-1-yl)acetic acid]
15 | 1 to 100 nM | CCC[C@H]1N(C(=O)c2ncccc2C(F)(F)F)CCC[C@@]1(Oc1csc(C(F)(F)F)c1)C(=O)N1Cc2cc(F)ccc2C[C@H]1C(=O)O [Compound A128, (3S)-7-fluoro-2-{[(2R,3S)-2-propyl-1-{[3-(trifluoromethyl)pyridin-2-yl]carbonyl}-3-{[5-(trifluoromethyl)thiophen-3-yl]oxy}piperidin-3-yl]carbonyl}-1,2,3,4-tetrahydroisoquinoline-3-carboxylic acid]
16 | 1 to 100 nM | CCC[C@H]1N(C(=O)c2ncccc2C(F)(F)F)CCC[C@@]1(Oc1csc(C(F)(F)F)c1)C(=O)N1CCc2cc(F)ccc2C1CC(=O)O (stereo partly drawn) [Compound A56, (6-fluoro-2-{[(2R,3S)-2-propyl-1-{[3-(trifluoromethyl)pyridin-2-yl]carbonyl}-3-{[5-(trifluoromethyl)thiophen-3-yl]oxy}piperidin-3-yl]carbonyl}-1,2,3,4-. tetrahydroisoquinolin-1-yl)acetic acid]
17 | 1 to 100 nM | CCC[C@H]1N(C(=O)c2ncccc2C(F)(F)F)CCC[C@@]1(Oc1csc(C(F)(F)F)c1)C(=O)N1CCc2cc(F)ccc2C1C(=O)O (stereo partly drawn) [Compound A101, 6-fluoro-2-{[(2R,3S)-2-propyl-1-{[3-(trifluoromethyl)pyridin-2-yl]carbonyl}-3-{[5-(trifluoromethyl)thiophen-3-yl]oxy}piperidin-3-yl]carbonyl}-1,2,3,4-tetrahydroisoquinoline-1-carboxylic acid]
18 | 1 to 100 nM | CCC[C@H]1N(C(=O)c2ncccc2C(F)(F)F)CCC[C@@]1(Oc1csc(C(F)(F)F)c1)C(=O)N1Cc2ccc(Br)cc2C[C@@H]1C(=O)O [Compound A134, (3R)-6-bromo-2-{[(2R,3S)-2-propyl-1-{[3-(trifluoromethyl)pyridin-2-yl]carbonyl}-3-{[5-(trifluoromethyl)thiophen-3-yl]oxy}piperidin-3-yl]carbonyl}-1,2,3,4-tetrahydroisoquinoline-3-carboxylic acid]
19 | 1 to 100 nM | CCC[C@H]1N(C(=O)c2ncccc2C(F)(F)F)CCC[C@@]1(Oc1csc(C(F)(F)F)c1)C(=O)N1CCc2sc(Cl)cc2C1C(=O)O (stereo partly drawn) [Compound A14, 2-chloro-5-{[(2R,3S)-2-propyl-1-{[3-(trifluoromethyl)pyridin-2-yl]carbonyl}-3-{[5-(trifluoromethyl)thiophen-3-yl]oxy}piperidin-3-yl]carbonyl}-4,5,6,7-tetrahydrothieno[3,2-c]pyridine-4-carboxylic acid]
20 | 1 to 100 nM | CCC[C@H]1N(C(=O)c2ncccc2C(F)(F)F)CCC[C@@]1(Oc1csc(C(F)(F)F)c1)C(=O)N1CCc2cc(F)ccc2C1CCCCC(=O)O (stereo partly drawn) [Compound A40, 5-(6-fluoro-2-{[(2R,3S)-2-propyl-1-{[3-(trifluoromethyl)pyridin-2-yl]carbonyl}-3-{[5-(trifluoromethyl)thiophen-3-yl]oxy}piperidin-3-yl]carbonyl}-1,2,3,4-tetrahydroisoquinolin-1-yl)pentanoic acid]

Same assay, conditions: numeric value

Row | IC50 | SMILES
21 | 472000 nM | COCCN(CCOC)CC[C@H]1N(C(=O)c2cnccc2C(F)(F)F)CCC[C@@]1(Oc1csc(C(F)(F)F)c1)C(=O)N1CCc2ccc(Cl)cc2C1 [Compound A1, 2-[(2R,3S)-3-[(7-chloro-3,4-dihydroisoquinblin-2(1H)-yl)carbonyl]-1-{[4-(trifluoromethyl)byridin-3-yl]carbonyl}-3-{[5-(trifluoromethyl)thiophen-3-yl]oxy}piperidin-2-yl]-N,N-bis(2-methoxyethyl)ethanamine]
